Test results as given in patent publication US8835462B2, “Macrocyclic picolinamides as fungicides” (Dow AgroSciences LLC, priority 2012, dated 2014).
Where two headings read alike, the source gives them in different places.

Key:
Puccinia triticina [1] = assay: Wheat brown rust (PUCCRT) fungicidal activity on wheat seedlings; assay type: in vivo
Method: Technical grades of materials were dissolved in acetone, which were then mixed with nine volumes of water containing 110 ppm Triton X-100. The fungicide solutions were applied onto wheat seedlings using an automated booth sprayer to run-off. All sprayed plants were allowed to air dry prior to further handling. Wheat plants (variety Yuma) were grown from seed in a greenhouse in 50% mineral soil/50% soil-less Metro mix until the first leaf was fully emerged, with 7-10 seedlings per pot. These plants were inoculated with an aqueous spore suspension of Septoria tritici either prior to or after fungicide treatments. After inoculation the plants were kept in 100% relative humidity (one day in a dark dew chamber followed by two to three days in a lighted dew chamber at 20° C.) to permit spores to germinate and infect the leaf. The plants were then transferred to a greenhouse set at 20° C. for disease to develop. When disease symptoms were fully expressed on the 1st leaves of untreated plants, infection levels were assessed on a scale of 0 to 100 percent disease severity. Percent disease control was calculated using the ratio of disease severity on treated plants relative to untreated plants. Evaluation of Fungicidal Activity: Wheat Brown Rust (Puccinia triticina; Synonym: Puccinia recondita f. sp. tritici; Bayer Code PUCCRT) Wheat plants (variety Yuma) were grown from seed in a greenhouse in 50% mineral soil/50% soil-less Metro mix until the first leaf was fully emerged, with 7-10 seedlings per pot. These plants were inoculated with an aqueous spore suspension of Puccinia triticina either prior to or after fungicide treatments. After inoculation the plants were kept in a dark dew room at 22° C. with 100% relative humidity overnight to permit spores to germinate and infect the leaf. The plants were then transferred to a greenhouse set at 24° C. for disease to develop. Fungicide formulation, application and disease assessment followed the procedures as described in the Example A.

[2] = tested on: Mycosphaerella graminicola; Anamorph: Septoria tritici; assay: Leaf blotch of wheat (SEPTTR) fungicidal activity on wheat seedlings; assay type: in vivo; conditions: Zymoseptoria tritici
Method: Evaluation of Fungicidal Activity: Leaf Blotch of Wheat (Mycosphaerella Graminicola; Anamorph: Septoria tritici; Bayer Code […]) Technical grades of materials were dissolved in acetone, which were then mixed with nine volumes of water containing 110 ppm Triton X-100. The fungicide solutions were applied onto wheat seedlings using an automated booth sprayer to run-off. All sprayed plants were allowed to air dry prior to further handling. Wheat plants (variety Yuma) were grown from seed in a greenhouse in 50% mineral soil/50% soil-less Metro mix until the first leaf was fully emerged, with 7-10 seedlings per pot. These plants were inoculated with an aqueous spore suspension of Septoria tritici either prior to or after fungicide treatments. After inoculation the plants were kept in 100% relative humidity (one day in a dark dew chamber followed by two to three days in a lighted dew chamber at 20° C.) to permit spores to germinate and infect the leaf. The plants were then transferred to a greenhouse set at 20° C. for disease to develop. When disease symptoms were fully expressed on the 1st leaves of untreated plants, infection levels were assessed on a scale of 0 to 100 percent disease severity. Percent disease control was calculated using the ratio of disease severity on treated plants relative to untreated plants.

Puccinia triticina [3] = assay: Fungicide mobility (dropline mobility test), wheat brown rust (PUCCRT); assay type: in vivo; conditions: 1 ug/leaf, disease-free zone as percent of distance from marked line to leaf tip; for Dropline Mobility Test PUCCRT 1 DPM: 1 Day Protectant Mobility; for Dropline Mobility Test PUCCRT 3 DCM: 3 Day Curative Mobility
Method: Evaluation of Fungicide Mobility: Wheat Brown Rust (Puccinia Triticina; Synonym: Puccinia recondita f. sp. Tritici; Bayer Code PUCCRT):
“Yuma” wheat seedlings were used in the test. One mg of compound was dissolved in 9 μl of EC blank (emulsifiable concentrate) and 500 μl of acetone. Acetone was then evaporated overnight by leaving the vial open in a fume hood. Two milliliters of water containing 110 ppm Triton X-100 was added to each vial to prepare application solutions. A […] drop of formulated material was applied to a marked line on the adaxial surface 5 cm from the leaf tip of the primary leaves. The primary leaves were kept in a horizontal position. Each treatment had 6 replicates. Plants were inoculated with PUCCRT 1-day after (1DPM) or 3-day prior to (3DCM) compound applications. When rust was fully expressed on primary leaves on control plants, the zone of treated leaves that was disease-free in the acropetal direction was measured with a ruler and converted to percent of the distance from marked line to leaf tip.

[4] = 24 h, 1 Day Protectant, read-out: Disease Control PUCCRT 1 DP
[5] = 72 h, 3 Day Curative, read-out: Disease Control PUCCRT 3 DC
[6] = 24 h, 1 Day Protectant, read-out: Disease Control SEPTTR 1 DP
[7] = 72 h, 3 Day Curative, read-out: Disease Control SEPTTR 3 DC

Row | SMILES | melting point | pest or weed control at 100 ppm (Puccinia triticina [1]; [4]) | pest or weed control at 100 ppm (Puccinia triticina [1]; [5]) | pest or weed control at 100 ppm [2, 6] | pest or weed control at 100 ppm [2, 7] | Dropline Mobility Test PUCCRT 1 DPM (Puccinia triticina [3]) | Dropline Mobility Test PUCCRT 3 DCM (Puccinia triticina [3])
1 | COC(=O)/C=C/O[C@@H]1[C@@H](Cc2ccccc2)COC[C@H](NC(=O)OC(C)(C)C)C(=O)O[C@H]1C [Compound 49, (E)-methyl 3-(((3S,6S,7R,8S)-8-benzyl-3-((tert-butoxycarbonyl)amino)-6-methyl-4-oxo-1,5-dioxonan-7-yl)oxy)acrylate] | 128 to 129 °C |  |  |  |  |  | 
2 | COc1ccnc(C(=O)N[C@H]2COC[C@H](CC3CCCCC3)[C@@H](OCC(C)C)[C@H](C)OC2=O)c1O [Compound 4, N-((3S,7S,8R,9S)-7-(cyclohexylmethyl)-8-isobutoxy-9-methyl-2-oxo-1,5-dioxonan-3-yl)-3-hydroxy-4-methoxypicolinamide] | 89 to 92 °C | 80 to 100% | 80 to 100% | 80 to 100% | 80 to 100% |  | 
3 | C[C@@H]1OC(=O)[C@@H](N(C(=O)OC(C)(C)C)C(=O)OC(C)(C)C)COC[C@H](Cc2ccccc2)[C@H]1O [Compound 57, tert-butyl N-[(3S,7S,8R,9S)-7-benzyl-8-hydroxy-9-methyl-2-oxo-1,5-dioxonan-3-yl]-N-tert-butoxycarbonylcarbamate] | 139 to 141 °C |  |  |  |  |  | 
4 | CCCCCO[C@@H]1[C@@H](Cc2ccccc2)COC[C@H](N(C(=O)OC(C)(C)C)C(=O)OC(C)(C)C)C(=O)O[C@H]1C [Compound 72] | 94 to 97 °C |  |  |  |  |  | 
5 | C[C@@H]1OC(=O)[C@@H](NC(=O)OC(C)(C)C)COC[C@H](Cc2ccccc2)[C@H]1OC(=O)C1CC1 [Compound 62] | 72 to 85 °C |  |  |  |  |  | 
6 | CCCO[C@@H]1[C@@H](Cc2ccccc2)COC[C@H](N(C(=O)OC(C)(C)C)C(=O)OC(C)(C)C)C(=O)O[C@H]1C [Compound 68] | 98 to 100 °C |  |  |  |  |  | 
7 | C[C@@H]1OC(=O)[C@@H](NC(=O)OC(C)(C)C)COC[C@H](Cc2ccccc2)[C@H]1OCCC(=O)N(C)C [Compound 53, tert-butyl ((3S,7S,8R,9S)-7-benzyl-8-(3-(dimethylamino)-3-oxopropoxy)-9-methyl-2-oxo-1,5-dioxonan-3-yl)carbamate] | 142 to 143 °C |  |  |  |  |  | 
8 | C=C(C)CO[C@@H]1[C@@H](Cc2ccccc2)COC[C@H](NC(=O)c2nccc(OC)c2O)C(=O)O[C@H]1C [Compound 6] | 96 to 104 °C | 80 to 100% | 80 to 100% | 80 to 100% | 0 to 80% |  | 
9 | CCCO[C@@H]1[C@@H](Cc2ccccc2)COC[C@H](NC(=O)c2nccc(OC)c2O)C(=O)O[C@H]1C [Compound 17] | 102 to 104 °C | 80 to 100% | 80 to 100% | 80 to 100% | 80 to 100% | B (More than 0-Less than 80) | B (More than 0-Less than 80)
10 | C=CCO[C@@H]1[C@@H](Cc2ccccc2)COC[C@H](N(C(=O)OC(C)(C)C)C(=O)OC(C)(C)C)C(=O)O[C@H]1C [Compound 65] | 88 to 90 °C |  |  |  |  |  | 
11 | C[C@@H]1OC(=O)[C@@H](NC(=O)OC(C)(C)C)COC[C@H](Cc2ccccc2)[C@H]1O/C=C/C(=O)OCc1ccccc1 [Compound 51, (E)-benzyl 3-(((3S,6S,7R,8S)-8-benzyl-3-((tert-butoxycarbonyl)amino)-6-methyl-4-oxo-1,5-dioxonan-7-yl)oxy)acrylate] | 182 to 185 °C |  |  |  |  |  | 
12 | C/C=C/C(C)O[C@@H]1[C@@H](Cc2ccccc2)COC[C@H](N(C(=O)OC(C)(C)C)C(=O)OC(C)(C)C)C(=O)O[C@H]1C (stereo partly drawn) [Compound 67] | 80 to 83 °C |  |  |  |  |  | 
13 | C[C@@H]1OC(=O)[C@@H](N(C(=O)OC(C)(C)C)C(=O)OC(C)(C)C)COC[C@H](Cc2ccccc2)[C@H]1OCCCC(F)(F)F [Compound 69] | 100 to 102 °C |  |  |  |  |  | 
14 | CCCC(C)O[C@@H]1[C@@H](Cc2ccccc2)COC[C@H](NC(=O)c2nccc(OC)c2O)C(=O)O[C@H]1C (stereo partly drawn) [Compound 19] | 52 to 56 °C | 80 to 100% | 80 to 100% | 80 to 100% | 80 to 100% | B (More than 0-Less than 80) | 
15 | CC/C=C/CO[C@@H]1[C@@H](Cc2ccccc2)COC[C@H](N(C(=O)OC(C)(C)C)C(=O)OC(C)(C)C)C(=O)O[C@H]1C [Compound 71] | 127 to 129 °C |  |  |  |  |  | 
16 | CCCCCO[C@@H]1[C@@H](Cc2ccccc2)COC[C@H](NC(=O)c2nccc(OC)c2O)C(=O)O[C@H]1C [Compound 21] | 51 to 56 °C | 80 to 100% | 0 to 80% | 0 to 80% | 0 to 80% | B (More than 0-Less than 80) | 
17 | C[C@@H]1OC(=O)[C@@H](N(C(=O)OC(C)(C)C)C(=O)OC(C)(C)C)COC[C@H](Cc2ccccc2)[C@H]1OC/C=C/C(F)(F)F [Compound 66] | 131 to 133 °C |  |  |  |  |  | 
18 | C[C@@H]1OC(=O)[C@@H](NC(=O)OC(C)(C)C)COC[C@H](Cc2ccccc2)[C@H]1O [Compound 48, tert-Butyl-(3S,7S,8R,9S)-7-benzyl-8-hydroxy-9-methyl-2-oxo-1,5-dioxonan-3-ylcarbamate] | 62 to 67 °C |  |  |  |  |  | 
19 | COc1ccnc(C(=O)N[C@H]2COC[C@H](Cc3ccccc3)[C@@H](OC)[C@H](C)OC2=O)c1O [Compound 32] | 57 to 70 °C | 80 to 100% | 0 to 80% | 0 to 80% | 80 to 100% | B (More than 0-Less than 80) | B (More than 0-Less than 80)
20 | C=C(C)CO[C@@H]1[C@@H](Cc2ccccc2)COC[C@H](N(C(=O)OC(C)(C)C)C(=O)OC(C)(C)C)C(=O)O[C@H]1C [Compound 82, tert-butyl N-[(3S,7S,8R,9S)-7-benzyl-9-methyl-8-(2-methylallyloxy)-2-oxo-1,5-dioxonan-3-yl]-N-tert-butoxycarbonylcarbamate] | 109 to 110 °C |  |  |  |  |  | 
21 | COc1ccnc(C(=O)N[C@H]2COC[C@H](Cc3ccccc3)[C@@H](OC(=O)C(C)C)[C@H](C)OC2=O)c1O [Compound 1] | 66 to 70 °C | 80 to 100% | 80 to 100% | 80 to 100% | 80 to 100% | B (More than 0-Less than 80) | B (More than 0-Less than 80)
